The results in this text go back to US7390870B2, “Immune-enhancing peptides” (Posco, priority 2001, dated 2008).

No end group written: not given here.

Test [1] concerns HL60 human promyelocytic cells. The test can be described thus: [Ca2+]i increase in undifferentiated HL60 cells (fura-2). The class given is cell-based. How it is done:
(§1) The level of [Ca^2+]i was determined by Grynkiewicz's method using fura-2/AM (21). Briefly, prepared cells were incubated with 3 μM fura-2/AM at 37° C. for 50 minutes in a fresh serum-free RPMI 1640 medium under continuous stirring. 2×10^6 cells were aliquoted for each assay in Ca^2+-free Locke's solution (154 mM NaCl, 5.6 mM KCl1.2 mM MgCl2, 5 mM HEPES, pH 7.3, 10 mM glucose, and 0.2 mM EGTA). The fluorescence changes at the dual excitation wavelengths of 340 nm and 380 nm and the emission wavelength of 500 nm were measured, and the calibrated fluorescence ratio was translated into [Ca^2+]i.
From the fact that HFYLPM, MFYLPM, and HFYLPm stimulate human monocytes, effects of the peptides on other leukocytes such as neutrophils were evaluated. […] The peak level of the [Ca^2+]i increase was recorded and superoxide generation was measured using cytochrome c reduction assay. […]
(§2) A test where the three peptides on HL60 cells that had differentiated into granulocytes after having been cultured in the presence of 1.25% DMSO for 4 days was performed. […] The peak level of the [Ca^2+]i increase was recorded. […]

In test [2] the test system is 3T3L1 (preadipocyte). The test can be described thus: [Ca2+]i rise in 3T3L1 cells (fura-2). The class given is cell-based. As to conditions: FIG. 4A; 20 μM peptide. How it is done:
as §1
(§3) From the fact that HFYLPM, MFYLPM, and HFYLPm stimulate human monocytes, effects of the peptides on other leukocytes such as neutrophils were evaluated. Prepared human primary monocytes, neutrophils, cultured HL60, Jurkat, U937, NIH3T3, 3Y1, 3T3L1, and PC12 cells were loaded with fura-2 and stimulated with effective concentrations of the three peptides (1 μM for monocyte and neutrophil; 10 μM for HL60 and Jurkat; 20 μM for U937, NIH3T3, 3Y1, 3T3L1, and PC12). The peak level of the [Ca^2+]i increase was recorded and superoxide generation was measured using cytochrome c reduction assay. The results are shown FIG. 4. The data of FIG. 4 are presented as means ±S.E. from at least three independent experiments.

Test [3] has as its system PC12 (rat adrenal pheochromocytoma). The test can be described thus: [Ca2+]i rise in PC12 cells (fura-2). The class given is cell-based. Conditions: FIG. 4A; 20 μM peptide. As to the method:
as §1, §3

Test [4] has as its system differentiated HL60 cells. The test can be described thus: [Ca2+]i increase in differentiated HL60 cells (dHL60, granulocyte phenotype). The class given is cell-based, human. Conditions: FIG. 5; various concentrations. As to the method: U937 (human histiocytic lymphoma cells), HL60 (human promyelocytic leukemia cells), Jurkat (human T cell leukemia cells), NIH3T3 (NIH Swiss mouse embryo fibroblasts), 3Y1 (Rat embryonic fibroblasts), 3T3L1 (preadipocytes), and PC12 (rat adrenal pheochromocytoma cells) were obtained from the American Type Culture Collection (Rockville, Md.) and maintained as re, commended. The cells were maintained at about 1×10^6 cells/ml under standard incubator conditions (humidified atmosphere, 95% air, 5% CO2, 37° C.). HL60 cells were induced to differentiate into the granulocyte phenotype by adding dimethylsulfoxide (DMSO) (final concentration 1.25%, v/v) for 4 days to the culture medium as has been described before (18).
The level of [Ca^2+]i was determined by Grynkiewicz's method using fura-2/AM (21). Briefly, prepared cells were incubated with 3 μM fura-2/AM at 37° C. for 50 minutes in a fresh serum-free RPMI 1640 medium under continuous stirring. […] The fluorescence changes at the dual excitation wavelengths of 340 nm and 380 nm and the emission wavelength of 500 nm were measured, and the calibrated fluorescence ratio was translated into [Ca^2+]i.
as §2

Test [5] relates to fura-2-loaded differentiated HL60 cells. The test can be described thus: Cross-desensitization of [Ca2+]i increase between fMLF and the peptides. Format: cell-based, human. Conditions: HFYLPm 1 μM, HFYLPM and MFYLPM 10 μM. As to the method:
as §1
Among various agonists, fMLF is known to cause superoxide production and [Ca^2+]i increase in phagocytic cells by binding to its specific receptor (7). To check whether the novel peptides can cross-desensitize the signaling by fMLF, the effect of fMLF on the novel peptides-induced [Ca^2+]i increase and vice versa was examined. […] The results of FIG. 6 shown are from one experiment that is representative of at least three independent experiments.
In FIG. 6, “Hm” means HFYLPm, “HM” means HFYLPM, and “MM” means MFYLPM. The concentrations used were 1 μM (HFYLPm and fMLF) and 10 μM (HFYLPM and MFYLPM). 340 nm/380 mn ratios in fluorescence were monitored on fura-2-loaded differentiated HL60 cells before and during sequential addition of agonists at the times indicated by the arrows.

The subject of test [6] is human neutrophil. The test can be described thus: Chemotaxis assay, human neutrophils (multiwell chamber). The class given is cell-based. As to conditions: similar concentrations as for monocyte migration. How it is done: (§4) Chemotaxis assays of the peptide were performed using multiwell chambers (Neuroprobe Inc., Gaithersburg, Md.) (20). Briefly, the prepared isolated human monocytes were suspended in RPMI at a concentration of 1×10^6 cells/ml of serum-free RPMI, and 25 □ of the suspension were placed onto the upper well of a 96-well chemotaxis chamber that was separated by a […] filter with a 5 □ pore size (3 □ diameter pores not coated with polyvinylpyrrolidone for neutrophils) from peptides or an fMLF-containing lower well. After incubation for 2 hours (90 minutes for neutrophils) at 37° C., non-migrated cells were removed by scraping them out, and cells that migrated across the filter were dehydrated, fixed, and stained with hematoxylin (Sigma, St. Louis, Mo.). The stained cells in five randomly chosen high power fields (HPF) (400×) in that well were then counted (21). The numbers of migrated cells were determined by counting them in a high power field (400×). For a checkboard analysis, cells were re-suspended in RPMI containing various concentrations of the peptide just before transferring them to the upper wells as described before (22).

Test [7] deals with monocytes. The test can be described thus: Receptor specificity: monocyte chemotaxis after preincubation with a peptide. As to conditions: FIG. 9, preincubation 10 μM peptide 10 minutes. Format: cell-based, human. How it is done: as §4
The three peptides, HFYLPM, MFYLPM, and HFYLPm which have similar sequences, exerted similar effects on human leukocytes in that they stimulated superoxide generation and chemotactic migration involving PTX-sensitive G-protein(s). So an attempt to reveal whether the three peptides acted through the same or different receptor(s) was carried out. For this purpose, monocytes were preincubated with 10 μM of each peptide, HFYLPM, MFYLPM, or HFYLPm for 10 minutes at 37° C., or they remained untreated. After washing twice, the cells were used for chemotaxis assay. The cells were allowed to migrate towards the maximal effective concentrations of each peptide (1 μM HFYLPM, 1 μM MFYLPM, or 10 nM HFYLPm) or medium. After fixing and staining of the membrane, migrated cells were quantified microscopically. […]

As for “Met-Phe-Tyr-Leu-Pro-Met-CONH2 (MFYLPM-NH2)”, the “[Ca2+]i increase in HL60 cells” value in test [1] (FIG. 4A, HFYLPM up to 20 μM) was “caused a [Ca^2+]i increase”. Also, the “[Ca2+]i rise in undifferentiated HL60 cells” value in test [1] (FIG. 5, various concentrations) is “stimulated both undifferentiated and differentiated HL60 cells”. Moreover, in test [2], the “[Ca2+]i rise in 3T3L1 cells” value is reported as “no response”. In test [3], the “[Ca2+]i rise in PC12 cells” value was “no response”. Further, the “[Ca2+]i rise in differentiated HL60 cells” value in test [4] is “stimulated both undifferentiated and differentiated HL60 cells”. Further, the “desensitization to subsequent stimulation with the same peptide ([Ca2+]i)” value in test [5] (FIG. 6) is on record as “complete desensitization”. For the same substance, the “block of the calcium response to a following saturating concentration of fMLF” value in test [5] (FIG. 6 below, fMLF 1 μM) is recorded as “completely block”. In addition, the “[Ca2+]i response to the peptide following a saturating concentration of fMLF” value in test [5] (FIG. 6 upper, fMLF 1 μM) is recorded as “considerable responses”. Besides, in test [6], the “cellular migration in human neutrophil” value was “induced cellular migration”. Moreover, the “inhibition of HFYLPm-induced cell migration by preincubation with peptide” value in test [7] (migration towards 10 nM HFYLPm) was “no inhibition”; in test [7] (migration towards 1 μM HFYLPM) it was “partial inhibition”. Further, the “inhibition of MFYLPM-induced cell migration by preincubation with peptide” value in test [7] (migration towards 1 μM MFYLPM) was “complete inhibition”.
